{"source": "PubChem BioAssay AID330", "about": "(DTP/NCI, 2004)", "tested_on": "P388 leukemia ip, CD2F1 mice, survival T/C", "experiment": "NCI In Vivo Anticancer Drug Screen. Data for tumor model P388 Leukemia (intraperitoneal) in CD2F1 (CDF1) mice", "conditions": "endpoint: median survival time, higher = longer survival", "summary_of_the_method": "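Mice carrying the transplanted tumor received test compound or vehicle. Survival was recorded in each group, and the value is the treated-group measurement divided by that of the vehicle-treated control group.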", "key": {"[1]": {"conditions": "dose: 50.0 mg/kg/injection, schedule: Q01DX005 (ip), vehicle: saline with Tween-80"}, "[2]": {"conditions": "dose: 100.0 mg/kg/injection, schedule: Q01DX005 (ip), vehicle: saline with Tween-80"}, "[3]": {"conditions": "dose: 200.0 mg/kg/injection, schedule: Q01DX005 (ip), vehicle: saline with Tween-80"}, "[4]": {"conditions": "dose: 50.0 mg/kg/injection, schedule: Q01DX005 (ip), vehicle: saline"}, "[5]": {"conditions": "dose: 100.0 mg/kg/injection, schedule: Q01DX005 (ip), vehicle: saline"}}, "note": "Values joined by “and” are separate entries in the source; they are usually repeats but may differ in a detail not shown here. Equal values may be shown once. Toxic doses and inconclusive results are not listed.", "data": [{"compound": "O=[N+]([O-])c1cc(I)c(O)c(/C=N/NS(=O)(=O)c2ccc(Cl)cc2)c1", "values": [{"measurement": "T/C", "setting": "[1]", "value": "101 % of control"}, {"measurement": "T/C", "setting": "[2]", "value": "100 % of control"}]}, {"compound": "C#Cc1cccc(N=Cc2cc(Br)cc(OC)c2O)c1", "values": [{"measurement": "T/C", "setting": "[1]", "value": "90 % of control"}, {"measurement": "T/C", "setting": "[2]", "value": "92 % of control"}, {"measurement": "T/C", "setting": "[3]", "value": "111 % of control"}]}, {"compound": "C1CCC2CC3CCCCN3COC2CC1", "note": "(stereo not drawn)", "values": [{"measurement": "T/C", "setting": "[4]", "value": "116 % of control"}, {"measurement": "T/C", "setting": "[5]", "value": "118 % of control"}]}, {"compound": "CCN(CC)CCNC(=O)c1noc2cc([N+](=O)[O-])ccc12", "values": [{"measurement": "T/C", "setting": "dose: 12.5 mg/kg/injection, schedule: Q01DX005 (ip), vehicle: saline", "value": "109 % of control"}, {"measurement": "T/C", "setting": "dose: 25.0 mg/kg/injection, schedule: Q01DX005 (ip), vehicle: saline", "value": "115 % of control"}, {"measurement": "T/C", "setting": "[4]", "value": "103 % of control and 97 % of control"}]}, {"compound": "C=C1C(=O)O[C@@H]2/C=C(/C)[C@@H](OC(C)=O)C/C=C(\\C)C(O)[C@@H](OC(=O)/C(C)=C\\C)C12", "note": "(stereo partly drawn)", "values": [{"measurement": "T/C", "setting": "dose: 25.0 mg/kg/injection, schedule: Q04DX002 (ip), vehicle: saline with Tween-80", "value": "105 % of control"}, {"measurement": "T/C", "setting": "dose: 50.0 mg/kg/injection, schedule: Q04DX002 (ip), vehicle: saline with Tween-80", "value": "105 % of control"}, {"measurement": "T/C", "setting": "dose: 100.0 mg/kg/injection, schedule: Q04DX002 (ip), vehicle: saline with Tween-80", "value": "104 % of control"}, {"measurement": "T/C", "setting": "dose: 200.0 mg/kg/injection, schedule: Q04DX002 (ip), vehicle: saline with Tween-80", "value": "97 % of control"}]}, {"compound": "COc1nc2c(nc(N)n2C2OC(COC(C)=O)C(OC(C)=O)C(OC(C)=O)C2OC(C)=O)c(=O)n1C", "note": "(stereo not drawn)", "values": [{"measurement": "T/C", "setting": "dose: 60.0 mg/kg/injection, schedule: Q01DX005 (ip), vehicle: saline", "value": "92 % of control"}, {"measurement": "T/C", "setting": "dose: 240.0 mg/kg/injection, schedule: Q01DX005 (ip), vehicle: saline", "value": "92 % of control"}]}, {"compound": "O=c1[nH]c(=O)n(C2OC(CO)C(O)C2O)cc1N1CCOCC1", "note": "(stereo not drawn)", "values": [{"measurement": "T/C", "setting": "[4]", "value": "100 % of control"}, {"measurement": "T/C", "setting": "[5]", "value": "100 % of control"}, {"measurement": "T/C", "setting": "dose: 200.0 mg/kg/injection, schedule: Q01DX005 (ip), vehicle: saline", "value": "98 % of control"}]}, {"compound": "COC(=O)C(Br)c1cccc(OC)c1", "note": "(stereo not drawn)", "values": [{"measurement": "T/C", "setting": "dose: 132.0 mg/kg/injection, schedule: Q04DX003 (ip), vehicle: saline with Tween-80", "value": "100 % of control"}, {"measurement": "T/C", "setting": "dose: 178.0 mg/kg/injection, schedule: Q01DX009 (ip), vehicle: saline with Tween-80", "value": "100 % of control"}, {"measurement": "T/C", "setting": "dose: 200.0 mg/kg/injection, schedule: Q04DX003 (ip), vehicle: saline with Tween-80", "value": "100 % of control"}, {"measurement": "T/C", "setting": "dose: 266.0 mg/kg/injection, schedule: Q01DX009 (ip), vehicle: saline with Tween-80", "value": "100 % of control"}, {"measurement": "T/C", "setting": "dose: 300.0 mg/kg/injection, schedule: Q04DX003 (ip), vehicle: saline with Tween-80", "value": "100 % of control"}, {"measurement": "T/C", "setting": "dose: 400.0 mg/kg/injection, schedule: Q01DX009 (ip), vehicle: saline with Tween-80", "value": "100 % of control"}]}, {"compound": "CC(C)=CCC/C(C)=C/COC(=O)C1C(C=C(C)C)C1(C)C", "note": "(stereo not drawn)", "values": [{"measurement": "T/C", "setting": "dose: 50.0 mg/kg/injection, schedule: Q01DX009 (ip), vehicle: saline", "value": "100 % of control"}, {"measurement": "T/C", "setting": "dose: 100.0 mg/kg/injection, schedule: Q01DX009 (ip), vehicle: saline", "value": "100 % of control"}, {"measurement": "T/C", "setting": "dose: 200.0 mg/kg/injection, schedule: Q01DX009 (ip), vehicle: saline", "value": "116 % of control"}, {"measurement": "T/C", "setting": "dose: 400.0 mg/kg/injection, schedule: Q01DX009 (ip), vehicle: saline", "value": "101 % of control"}]}, {"compound": "OC1C=CC2CCC1C2", "note": "(stereo not drawn)", "values": [{"measurement": "T/C", "setting": "dose: 50.0 mg/kg/injection, schedule: Q01DX009 (ip), vehicle: saline with Tween-80", "value": "107 % of control"}, {"measurement": "T/C", "setting": "dose: 100.0 mg/kg/injection, schedule: Q01DX009 (ip), vehicle: saline with Tween-80", "value": "114 % of control"}, {"measurement": "T/C", "setting": "dose: 200.0 mg/kg/injection, schedule: Q01DX009 (ip), vehicle: saline with Tween-80", "value": "115 % of control"}]}, {"compound": "CCO/C(C)=C\\C(=O)O", "values": [{"measurement": "T/C", "setting": "[1]", "value": "98 % of control"}, {"measurement": "T/C", "setting": "[2]", "value": "97 % of control"}, {"measurement": "T/C", "setting": "[3]", "value": "97 % of control"}]}, {"compound": "CC(C)CNC(=O)OCc1c(COC(=O)NCC(C)C)c(-c2ccc(Cl)c(Cl)c2)n2c1CCC2", "values": [{"measurement": "T/C", "setting": "dose: 6.25 mg/kg/injection, schedule: Q01DX009 (ip), vehicle: distilled water + Tween-80", "value": "111 % of control and 116 % of control"}, {"measurement": "T/C", "setting": "dose: 25.0 mg/kg/injection, schedule: Q01DX009 (ip), vehicle: distilled water + Tween-80", "value": "158 % of control and 171 % of control"}, {"measurement": "T/C", "setting": "dose: 50.0 mg/kg/injection, schedule: Q01DX009 (ip), vehicle: distilled water + Tween-80", "value": "182 % of control and 198 % of control"}, {"measurement": "T/C", "setting": "dose: 100.0 mg/kg/injection, schedule: Q01DX009 (ip), vehicle: distilled water + Tween-80", "value": "180 % of control"}, {"measurement": "T/C", "setting": "dose: 200.0 mg/kg/injection, schedule: Q01DX009 (ip), vehicle: distilled water + Tween-80", "value": "100 % of control and 92 % of control"}]}, {"compound": "COc1cc(C2c3cc(O)c(OC)cc3CC(C(N)=O)C2CO)ccc1O", "note": "(stereo not drawn)", "values": [{"measurement": "T/C", "setting": "[1]", "value": "100 % of control"}, {"measurement": "T/C", "setting": "[2]", "value": "100 % of control"}, {"measurement": "T/C", "setting": "[3]", "value": "98 % of control"}]}]}
